Measured values as given in patent US7960376B2, “Benzo-fused heterocycles” (priority 2007, dated 2011).

Experiments:
[1] = molecular target: human CB2 receptor (hCB2) (Homo sapiens, UniProt P34972); experiment: cell-based; assay type: cell-based; conditions: intracellular cAMP, CHO-K1 cells, NKH-477 prestimulated; + agonist, − inverse agonist
rat CB2 receptor (rCB2) = molecular target: T1, rat CB2 receptor (rCB2) (Rattus norvegicus, UniProt Q9QZN9); experiment: cell-based; assay type: cell-based; conditions: intracellular cAMP, CHO-K1 cells, NKH-477 prestimulated; + agonist, − inverse agonist
T1 sequence (Q9QZN9 1-360): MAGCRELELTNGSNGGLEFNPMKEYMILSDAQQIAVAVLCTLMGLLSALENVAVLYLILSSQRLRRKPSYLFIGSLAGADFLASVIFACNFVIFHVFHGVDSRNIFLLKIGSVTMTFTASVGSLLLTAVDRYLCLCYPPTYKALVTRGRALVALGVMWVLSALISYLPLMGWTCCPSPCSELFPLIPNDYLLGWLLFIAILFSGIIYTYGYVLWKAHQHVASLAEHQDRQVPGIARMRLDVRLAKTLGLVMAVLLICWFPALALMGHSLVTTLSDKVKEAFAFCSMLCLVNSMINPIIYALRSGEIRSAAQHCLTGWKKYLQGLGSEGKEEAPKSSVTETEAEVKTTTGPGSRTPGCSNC

[2] = molecular target: human CB1 receptor (hCB1) (Homo sapiens, UniProt P21554); experiment: cAMP assay (LANCE TR-FRET) in CHO-K1 cells expressing hCB1; assay type: cell-based; conditions: intracellular cAMP, NKH-477 prestimulated, + agonist, − inverse agonist
[3] = tested on: CFA-induced mechanical hyperalgesia; experiment: Anti-hyperalgesia in the Complete Freund's Adjuvant (CFA) model of inflammatory pain, Randall-Selitto paw pressure; assay type: in vivo, Male Sprague-Dawley rats; conditions: rat, injured paw, Pre-CFA 175 ± 4 g, Post-CFA 100 ± 3 g, cut-off 260 g, mean ± SEM, p < 0.05 vs Post-CFA

human CB2 receptor (hCB2), sequence (P34972 whole entry): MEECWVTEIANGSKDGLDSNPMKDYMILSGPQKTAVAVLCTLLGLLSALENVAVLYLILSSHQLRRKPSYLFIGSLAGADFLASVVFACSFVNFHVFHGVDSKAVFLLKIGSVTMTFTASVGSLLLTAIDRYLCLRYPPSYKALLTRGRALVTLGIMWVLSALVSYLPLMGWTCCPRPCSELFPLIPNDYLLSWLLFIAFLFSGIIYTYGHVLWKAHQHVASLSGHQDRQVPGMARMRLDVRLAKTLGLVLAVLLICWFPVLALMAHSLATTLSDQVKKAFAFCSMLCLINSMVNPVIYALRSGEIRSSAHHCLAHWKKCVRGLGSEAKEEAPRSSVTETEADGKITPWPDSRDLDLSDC
human CB1 receptor (hCB1), sequence (P21554 whole entry): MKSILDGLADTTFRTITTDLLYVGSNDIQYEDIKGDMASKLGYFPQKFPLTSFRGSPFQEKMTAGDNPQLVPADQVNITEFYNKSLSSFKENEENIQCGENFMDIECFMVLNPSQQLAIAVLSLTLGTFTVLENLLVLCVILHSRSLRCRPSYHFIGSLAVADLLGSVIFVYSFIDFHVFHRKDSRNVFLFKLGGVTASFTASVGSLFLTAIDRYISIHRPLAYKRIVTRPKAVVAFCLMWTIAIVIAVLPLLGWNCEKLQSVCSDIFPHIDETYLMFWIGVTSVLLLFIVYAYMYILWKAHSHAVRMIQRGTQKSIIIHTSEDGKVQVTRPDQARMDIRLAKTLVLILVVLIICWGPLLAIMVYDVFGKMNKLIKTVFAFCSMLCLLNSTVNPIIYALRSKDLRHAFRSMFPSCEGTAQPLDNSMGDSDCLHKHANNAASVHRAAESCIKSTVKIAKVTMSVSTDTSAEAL

| SMILES | hCB2 EC50 range [1] | rCB2 EC50 range (rat CB2 receptor (rCB2)) | hCB1 EC50 range [2] | Test Threshold ([3]; 1 mg/paw intrapaw) [g] | Test Threshold ([3]; 0.1 mg/paw intrapaw) [g] |
| --- | --- | --- | --- | --- | --- |
| O=C(NC1CCCC1)c1ccc2c(c1)N(S(=O)(=O)c1ccc(F)cc1)CCS2 [Example 45, N-cyclopentyl-4-(4-fluorophenylsulfonyl)-3,4-dihydro-2H-benzo[b][1,4]thiazine-6-carboxamide] | +B | +A | +D | 179 ± 19 | – |
| CC1(C)CCN(S(=O)(=O)c2ccc(F)cc2)c2cc(C(=O)NC3CCCC3)ccc2S1 [Example 101, N-cyclopentyl-5-(4-fluorophenylsulfonyl)-2,2-dimethyl-2,3,4,5-tetrahydrobenzo[b][1,4] thiazepine-7-carboxamide] | +E | −C | −E | – | – |
| CNC(=O)[C@@H](NC(=O)c1ccc2c(c1)N(S(=O)(=O)c1ccc(F)cc1)CCC(C)(C)S2)C(C)(C)C [Example 103, (S)-N-(3,3-dimethyl-1-(methylamino)-1-oxobutan-2-yl)-5-(4-fluorophenyl-sulfonyl)-2,2-dimethyl-2,3,4,5-tetrahydrobenz0-[b][1,4]thiazepine-7-carboxamide] | +D | +C | −E | – | – |
| O=S(=O)(c1ccc(F)cc1)N1CCSc2ccc(-c3nnc(-c4ccccc4)o3)cc21 [Example 104, 2-(4-(4-fluorophenylsulfonyl)-3,4-dihydro-2H-benzo[b][1,4]thiazin-6-yl)-5-phenyl-1,3,4-oxadiazole] | +C | +B | +D | – | – |
| O=S(=O)(c1ccc(C(F)(F)F)cc1)N1CCSc2ccc(-c3nnc(-c4ccccc4)o3)cc21 [Example 105, 2-phenyl-5-(4-(4-(trifluoromethyl)phenylsulfonyl)-3,4-dihydro-2H-benzo[b][1,4]thiazin-6-yl)-1,3,4-oxadiazole] | +C | +A | +D | – | – |
| O=S(=O)(c1ccc(F)cc1)N1CCSc2ccc(-c3ncc(-c4ccccc4)[nH]3)cc21 [Example 108, 4-(4-fluorophenylsulfonyl)-6-(5-phenyl-1H-imidazol-2-yl)-3,4-dihydro-2H-benzo[b][1,4]thiazine] | +C | +B | +E | – | – |
| O=S(=O)(c1ccc(C(F)(F)F)cc1)N1CCSc2ccc(-c3nc4ccccc4o3)cc21 [Example 109, 2-(4-(4-(trifluoromethyl)phenylsulfonyl)-3,4-dihydro-2H-benzo[b][1,4]thiazin-6-yl)benzo[d]oxazole] | +C | +B | +D | – | – |
| Cc1c(C(=O)c2cccc3ccccc23)c2cccc3c2n1[C@H](CN1CCOCC1)CO3 [WIN 55212, 2, reference compound] | – | – | – | – | 255 ± 5 |
